In patent publication US8192962B2, “Processes for detecting toxic substances” (Daikin Industries, Ltd., priority 2001, dated 2012):

Tested on: Transport facilitation protein genes
Assay: DNA chip mRNA expression in yeast, transport facilitation protein genes (Table 5)
Format: cell-based, Saccharomyces cerevisiae S288C
Procedure, shortened: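 First, S288C yeast grown in YPD at 25° C. are dosed in log phase with one toxicant (growth-inhibiting, not lethal) for 2 h. Next, total RNA is extracted and poly(A) mRNA isolated and reverse-transcribed with Cy3/Cy5-dUTP. Finally, whole-genome chip fluorescence is read relative to unexposed cells.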

For `S=C([S-])NCCNC(=S)[S-].[Zn+2]` [(11), zinc N,N′-ethylenebis(dithiocarbamate)], the “The level of expressed mRNA in the presence of chemical substance/The level of expressed mRNA in the absence of chemical substance” value (yeast gene YBL030C) was 1.1, the “The level of expressed mRNA in the presence of chemical substance/The level of expressed mRNA in the absence of chemical substance” value (yeast gene YBL099W) was 2.1 and the “The level of expressed mRNA in the presence of chemical substance/The level of expressed mRNA in the absence of chemical substance” value (yeast gene YBR052C) was 1.7. The “The level of expressed mRNA in the presence of chemical substance/The level of expressed mRNA in the absence of chemical substance” value (yeast gene YBR068C) was 0.8, the “The level of expressed mRNA in the presence of chemical substance/The level of expressed mRNA in the absence of chemical substance” value (yeast gene YBR127C) was 1.1 and the “The level of expressed mRNA in the presence of chemical substance/The level of expressed mRNA in the absence of chemical substance” value (yeast gene YBR132C) was 1.9. The “The level of expressed mRNA in the presence of chemical substance/The level of expressed mRNA in the absence of chemical substance” value (yeast gene YBR207W) was 1.1, the “The level of expressed mRNA in the presence of chemical substance/The level of expressed mRNA in the absence of chemical substance” value (yeast gene YBR293W) was 1.1 and the “The level of expressed mRNA in the presence of chemical substance/The level of expressed mRNA in the absence of chemical substance” value (yeast gene YBR294W) was 1.2. For the same compound, the “The level of expressed mRNA in the presence of chemical substance/The level of expressed mRNA in the absence of chemical substance” value (yeast gene YBR295W) was 1.1, the “The level of expressed mRNA in the presence of chemical substance/The level of expressed mRNA in the absence of chemical substance” value (yeast gene YBR298C) was 1.5 and the “The level of expressed mRNA in the presence of chemical substance/The level of expressed mRNA in the absence of chemical substance” value (yeast gene YCL025C) was 1.0. For the same compound, the “The level of expressed mRNA in the presence of chemical substance/The level of expressed mRNA in the absence of chemical substance” value (yeast gene YCL038C) was 2.0, the “The level of expressed mRNA in the presence of chemical substance/The level of expressed mRNA in the absence of chemical substance” value (yeast gene YCR024C-A) was 1.5 and the “The level of expressed mRNA in the presence of chemical substance/The level of expressed mRNA in the absence of chemical substance” value (yeast gene YCR037C) was 0.8. For the same compound, the “The level of expressed mRNA in the presence of chemical substance/The level of expressed mRNA in the absence of chemical substance” value (yeast gene YCR098C) was 1.3, the “The level of expressed mRNA in the presence of chemical substance/The level of expressed mRNA in the absence of chemical substance” value (yeast gene YDL128W) was 1.2 and the “The level of expressed mRNA in the presence of chemical substance/The level of expressed mRNA in the absence of chemical substance” value (yeast gene YDL198C) was 2.5. For the same compound, the “The level of expressed mRNA in the presence of chemical substance/The level of expressed mRNA in the absence of chemical substance” value (yeast gene YDL210W) was 0.6, the “The level of expressed mRNA in the presence of chemical substance/The level of expressed mRNA in the absence of chemical substance” value (yeast gene YDL245C) was 1.5 and the “The level of expressed mRNA in the presence of chemical substance/The level of expressed mRNA in the absence of chemical substance” value (yeast gene YDR038C) was 0.9. The “The level of expressed mRNA in the presence of chemical substance/The level of expressed mRNA in the absence of chemical substance” value (yeast gene YDR039C) was 0.9, the “The level of expressed mRNA in the presence of chemical substance/The level of expressed mRNA in the absence of chemical substance” value (yeast gene YDR086C) was 1.1 and the “The level of expressed mRNA in the presence of chemical substance/The level of expressed mRNA in the absence of chemical substance” value (yeast gene YDR270W) was 1.0. For the same compound, the “The level of expressed mRNA in the presence of chemical substance/The level of expressed mRNA in the absence of chemical substance” value (yeast gene YDR298C) was 1.2, the “The level of expressed mRNA in the presence of chemical substance/The level of expressed mRNA in the absence of chemical substance” value (yeast gene YDR342C) was 2.9 and the “The level of expressed mRNA in the presence of chemical substance/The level of expressed mRNA in the absence of chemical substance” value (yeast gene YDR343C) was 2.3. For the same compound, the “The level of expressed mRNA in the presence of chemical substance/The level of expressed mRNA in the absence of chemical substance” value (yeast gene YDR345C) was 1.5, the “The level of expressed mRNA in the presence of chemical substance/The level of expressed mRNA in the absence of chemical substance” value (yeast gene YDR387C) was 2.0 and the “The level of expressed mRNA in the presence of chemical substance/The level of expressed mRNA in the absence of chemical substance” value (yeast gene YDR497C) was 0.7. For the same compound, the “The level of expressed mRNA in the presence of chemical substance/The level of expressed mRNA in the absence of chemical substance” value (yeast gene YEL027W) was 0.9, the “The level of expressed mRNA in the presence of chemical substance/The level of expressed mRNA in the absence of chemical substance” value (yeast gene YEL063C) was 0.8 and the “The level of expressed mRNA in the presence of chemical substance/The level of expressed mRNA in the absence of chemical substance” value (yeast gene YEL065W) was 0.6. The “The level of expressed mRNA in the presence of chemical substance/The level of expressed mRNA in the absence of chemical substance” value (yeast gene YER053C) was 2.4, the “The level of expressed mRNA in the presence of chemical substance/The level of expressed mRNA in the absence of chemical substance” value (yeast gene YER119C) was 2.2 and the “The level of expressed mRNA in the presence of chemical substance/The level of expressed mRNA in the absence of chemical substance” value (yeast gene YFL011W) was 2.1. For the same compound, the “The level of expressed mRNA in the presence of chemical substance/The level of expressed mRNA in the absence of chemical substance” value (yeast gene YFL041W) was 0.9, the “The level of expressed mRNA in the presence of chemical substance/The level of expressed mRNA in the absence of chemical substance” value (yeast gene YFL050C) was 1.2 and the “The level of expressed mRNA in the presence of chemical substance/The level of expressed mRNA in the absence of chemical substance” value (yeast gene YFL054C) was 1.7. For the same compound, the “The level of expressed mRNA in the presence of chemical substance/The level of expressed mRNA in the absence of chemical substance” value (yeast gene YFL055W) was 2.7, the “The level of expressed mRNA in the presence of chemical substance/The level of expressed mRNA in the absence of chemical substance” value (yeast gene YGL006W) was 0.8 and the “The level of expressed mRNA in the presence of chemical substance/The level of expressed mRNA in the absence of chemical substance” value (yeast gene YGL008C) was 0.7. For the same compound, the “The level of expressed mRNA in the presence of chemical substance/The level of expressed mRNA in the absence of chemical substance” value (yeast gene YGL104C) was 1.8, the “The level of expressed mRNA in the presence of chemical substance/The level of expressed mRNA in the absence of chemical substance” value (yeast gene YGL167C) was 0.8 and the “The level of expressed mRNA in the presence of chemical substance/The level of expressed mRNA in the absence of chemical substance” value (yeast gene YGL255W) was 0.5. The “The level of expressed mRNA in the presence of chemical substance/The level of expressed mRNA in the absence of chemical substance” value (yeast gene YGR055W) was 1.5, the “The level of expressed mRNA in the presence of chemical substance/The level of expressed mRNA in the absence of chemical substance” value (yeast gene YGR065C) was 1.1 and the “The level of expressed mRNA in the presence of chemical substance/The level of expressed mRNA in the absence of chemical substance” value (yeast gene YGR082W) was 1.3. For the same compound, the “The level of expressed mRNA in the presence of chemical substance/The level of expressed mRNA in the absence of chemical substance” value (yeast gene YGR096W) was 0.8, the “The level of expressed mRNA in the presence of chemical substance/The level of expressed mRNA in the absence of chemical substance” value (yeast gene YGR138C) was 0.7 and the “The level of expressed mRNA in the presence of chemical substance/The level of expressed mRNA in the absence of chemical substance” value (yeast gene YGR191W) was 1.6. For the same compound, the “The level of expressed mRNA in the presence of chemical substance/The level of expressed mRNA in the absence of chemical substance” value (yeast gene YGR197C) was 1.1, the “The level of expressed mRNA in the presence of chemical substance/The level of expressed mRNA in the absence of chemical substance” value (yeast gene YGR224W) was 0.8 and the “The level of expressed mRNA in the presence of chemical substance/The level of expressed mRNA in the absence of chemical substance” value (yeast gene YGR260W) was 1.3. For the same compound, the “The level of expressed mRNA in the presence of chemical substance/The level of expressed mRNA in the absence of chemical substance” value (yeast gene YGR281W) was 0.7.
